Values joined by “and” are separate entries in the source; they are usually repeats but may differ in a detail not shown here. Identical values can stand only once.
Assays:
A. fumigatus [1] = experiment: Ex vivo biodistribution in rat A. fumigatus infection model, standard; parameters: species or system Lewis rats; conditions: for Lung/blood ratio, control (mean ± sd) / Lung/blood ratio, mild infection (mean ± sd) / Lung/blood ratio, severe infection (mean ± sd) / Lung/kidneys ratio, control (mean ± sd) / Lung/kidneys ratio, mild infection (mean ± sd) / Lung/kidneys ratio, severe infection (mean ± sd) / Lung/liver ratio, control (mean ± sd) / Lung/liver ratio, mild infection (mean ± sd) / Lung/liver ratio, severe infection (mean ± sd): 2 h after injection; for Mild infection (%ID/g - lungs) (mean ± sd): mildly infected rats; for Mild infection (%ID/g - lungs) (mean ± sd) / Control (%ID/g - lungs) (mean ± sd) / Severe infection (%ID/g - lungs) (mean ± sd): lungs ex vivo 2 h after injection, n in cell; for Control (%ID/g - lungs) (mean ± sd): rats showing no infection; for Severe infection (%ID/g - lungs) (mean ± sd): severely infected rats, γ-counter
Protocol: The A. fumigatus (A29) isolate was grown on Sabouraud dextrose agar (BD) for 5 days at 37 °C, and the conidia were harvested in 2 ml of sterile NaCl by gently rubbing with a pipette tip. The conidia suspension was transferred into a sterile 50 ml plastic tube. After homogenization (vortex) and filtration (40 μm nylon cell strainer; BD), the suspension was counted in a Neubauer chamber and adjusted to the volitional concentration in the range 1 × 10^5 to 1 × 10^9 conidia per millilitre.
(§1) Female or male Lewis rats (2–3 months old), weighing 200–250 g, were treated as described previously. Briefly, the rats received repeated intraperitoneal injections of cyclophosphamide to induce neutropenia before A. fumigatus administration. To prevent bacterial superinfection, the animals were given antibiotics throughout the experiment. Fungal infection was established by intratracheal administration of 100–300 μl of A. fumigatus inoculum in various concentrations (1 × 10^5 to 1 × 10^9 conidia per millilitre). Animals were injected intravenously 1–3 days (depending on the severity of infection) after A. fumigatus administration with ^68Ga-labelled siderophore (10–20 MBq and 1–2 μg of siderophore per rat). The rats were imaged or killed by overdosing with thiopental (Sandoz, Kundl, Austria) 2 h after injection. Various organs and tissues (blood, spleen, kidneys, liver and lungs) were removed and radioactivity was measured in a γ-counter. The excised organs were investigated for the presence of fungi, as described below.
The excised organs were homogenized in a petri dish using a sterile surgical blade and transferred to Sabouraud dextrose agar (BD) plates. The plates were incubated at 37 °C and examined daily for 7 days. […] Severe infection was defined as the presence of severe fungal growth 1 day after incubation, mild infection was defined as the presence of minor growth up to 3 days after incubation, and no infection was defined as lack of growth within 1 week of incubation.

Stability in human serum = type: in vitro ADME
Protocol: (§2) TAFC and FOXE were labelled with ^68Ga using acetate buffer at room temperature for 15 min (TAFC) and at 80 °C for 20 min (FOXE). For all in vitro and in vivo studies, the pH of the final product was adjusted with 1.1 M sodium acetate to pH 6–7. The radiochemical purity, log P, protein binding and stability of ^68Ga-siderophores in various media were determined, as described previously.

Stability in 6 mM DTPA = type: physicochemical
Protocol: as §2

[2] = test system: A. fumigatus wild-type ATCC46645; experiment: In vitro uptake of ^68Ga-siderophores by A. fumigatus cultures; type: cell-based, Aspergillus fumigatus; conditions: room temperature; for Uptake by A. fumigatus in iron-deficient cultures: 5 ng ^68Ga-siderophore, 10-90 min, 96-well plates, filtration, γ-counter; for Blocking of uptake with excess of ferri-siderophore and/or sodium azide: iron-deficient cultures, 45 min incubation
Protocol: The Aspergillus strain used for in vitro studies was A. fumigatus wild-type ATCC46645 (American Type Culture Collection) cultured at 37 °C in Aspergillus minimal medium, containing 1 % glucose as the carbon source, 20 mM glutamine as the nitrogen source, salts and trace elements, as described previously. Iron-sufficient media contained […] FeSO4. For preparation of iron-deficient media, iron addition was omitted. Iron-deficient conditions were verified by detection of extracellular siderophore production, which is suppressed by iron.
Uptake by A. fumigatus in iron-deficient and iron-sufficient cultures was studied. For the monitoring of uptake over time, ^68Ga-siderophores (5 ng) were incubated in microbial media for 10, 20, 30, 45, 60 and 90 min at room temperature in 96-well plates (Millipore, Billerica, MA). For the monitoring of uptake blocking, excess of ferri-siderophore (Fe-TAFC or Fe-FOXE) and/or sodium azide was used. ^68Ga-siderophores were incubated in iron-deficient and iron-sufficient media for 45 min at room temperature in 96-well plates. The incubation was interrupted in both cases by filtration of the medium and rapid rinsing with ice-cold TRIS buffer. The filters were collected and counted in a γ-counter.

A. fumigatus [3] = experiment: PET imaging in rat A. fumigatus infection model; type: in vivo, Lewis rats; conditions: infected rats, lungs, mean ± sd; for Target/non-target ratio: calculated from all PET imaging studies, n=13
Protocol: as §1
PET images were acquired with an Inveon animal PET/CT scanner (Siemens Preclinical Solutions, Knoxville, TN) with an intrinsic spatial resolution of 1.5 mm. The animals were placed in a prone position. Static PET images were acquired over 30 min starting 30 min after intravenous injection of ^68Ga-siderophore. Dynamic PET imaging was started upon injection and continued up to 60 min after injection. In addition, combined PET/CT scans were performed for anatomical reference. PET emission scans were acquired for 30 min, preceded by CT scans (spatial resolution 113 μm, 80 kV, 500 μA, exposure time 300 ms). After imaging, animals were killed by CO2/O2. Scans were reconstructed using Inveon Acquisition Workplace software (version 1.5; Siemens Preclinical Solutions, Knoxville, TN) using a 3-D ordered subset expectation maximization/maximum a posteriori (OSEM3D/MAP) algorithm with the following parameters: matrix 256 × 256 × 159, pixel size 0.43 × 0.43 × 0.8 mm^3 and a MAP prior β-value of 1.5.

[4] = Biodistribution in normal Balb/c mice; type: in vivo; conditions: normal noninfected Balb/c mice, i.v. tail vein
Protocol: Normal noninfected Balb/c mice (female, 6 weeks old) were injected with ^68Ga-siderophore (2 MBq and 0.1–0.2 μg of siderophore per mouse) into the tail vein. Animals were killed by cervical dislocation 30 min and 90 min after injection. The organs and tissues (blood, spleen, pancreas, stomach, intestines, kidneys, liver, heart, lungs, muscle and femur) were removed and radioactivity was counted in a γ-counter. The results are expressed as percentage of injected dose per gram of tissue.

Compound | Lung/blood ratio, control (mean ± sd) (A. fumigatus [1]) | Lung/blood ratio, mild infection (mean ± sd) (A. fumigatus [1]) | Lung/blood ratio, severe infection (mean ± sd) (A. fumigatus [1]) | Lung/kidneys ratio, control (mean ± sd) (A. fumigatus [1]) | Lung/kidneys ratio, mild infection (mean ± sd) (A. fumigatus [1]) | Lung/kidneys ratio, severe infection (mean ± sd) (A. fumigatus [1]) | Lung/liver ratio, control (mean ± sd) (A. fumigatus [1]) | Lung/liver ratio, mild infection (mean ± sd) (A. fumigatus [1]) | Lung/liver ratio, severe infection (mean ± sd) (A. fumigatus [1]) | Mild infection (%ID/g - lungs) (mean ± sd) (A. fumigatus [1]) | Control (%ID/g - lungs) (mean ± sd) (A. fumigatus [1]) | Severe infection (%ID/g - lungs) (mean ± sd) (A. fumigatus [1]) | Stability in human serum (%) (Stability in human serum; incubation time 30 min) | Stability in human serum (%) (Stability in human serum; incubation time 60 min) | Stability in human serum (%) (Stability in human serum; incubation time 120 min) | Stability in 6-mM DTPA (%) (Stability in 6 mM DTPA; incubation time 30 min) | Stability in 6-mM DTPA (%) (Stability in 6 mM DTPA; incubation time 60 min) | Uptake by A. fumigatus in iron-deficient cultures [2] | Blocking of uptake with excess of ferri-siderophore and/or sodium azide [2] | Target/non-target ratio (A. fumigatus [3]) | also measured
CC(=O)NC1CCCN([O-])C(=O)C=C(C)CCOC(=O)C(NC(C)=O)CCCN([O-])C(=O)C=C(C)CCOC(=O)C(NC(C)=O)CCCN([O-])C(=O)C=C(C)CCOC1=O.[68Ga+3] (stereo not shown) [^68Ga-TAFC, triacetylfusarinine C] | 1.34 ± 0.22 (n=9) | 3.82 ± 2.89 (n=3) | 15.11 ± 11.37 (n=4) | 0.07 ± 0.03 (n=9) | 0.16 ± 0.14 (n=3) | 1.40 ± 0.76 (n=4) | 0.84 ± 0.48 (n=9) | 4.81 ± 2.70 (n=3) | 14.29 ± 6.10 (n=4) | 0.29 ± 0.12 %ID/g and 0.29 ± 0.12 (n=3) %ID/g | 0.04 ± 0.01 %ID/g and 0.04 ± 0.01 (n=9) %ID/g | 0.95 ± 0.37 %ID/g and 0.95 ± 0.37 (n=4) %ID/g | 99.9 | 99.9 | 99.9 | 85.0 | 84.7 | rapid uptake | could be blocked | 5.81 ± 6.05 (n=13) | Blood level ([4]; 30 min after injection): 1.6 ± 0.37 %ID/g; Intestinal accumulation ([4]; 30 min after injection): 1.7 ± 1.04 %ID/g; Intestinal accumulation ([4]; 90 min after injection): 1.0 ± 0.26 %ID/g
O=C1CCC(=O)N([O-])CCCCCNC(=O)CCC(=O)N([O-])CCCCCNC(=O)CCC(=O)N([O-])CCCCCN1.[68Ga+3] [^68Ga-FOXE, ferrioxamine E] | 1.48 ± 0.33 (n=5) | 5.45 ± 5.57 (n=4) | 62.35 ± 77.98 (n=5) | 0.07 ± 0.02 (n=5) | 0.38 ± 0.42 (n=4) | 3.33 ± 2.85 (n=5) | 0.87 ± 0.27 (n=5) | 5.45 ± 5.85 (n=4) | 47.79 ± 39.48 (n=5) | 0.48 ± 0.54 %ID/g and 0.48 ± 0.54 (n=4) %ID/g | 0.04 ± 0.02 %ID/g and 0.04 ± 0.02 (n=5) %ID/g | 3.45 ± 1.00 (n=5) %ID/g | 99.9 | 99.9 | 99.9 | 94.3 | 93.8 | rapid uptake | could be blocked | 6.64 ± 2.91 (n=13) | Stability in all of the tested media (Stability in human serum; human serum, 0.1 M FeCl3 and 6 mM DTPA, summary bound over all media): ≥ 90%; Stability in 6-mM DTPA (%) (Stability in 6 mM DTPA; incubation time 120 min): 93.2%; SUV (A. fumigatus [3]; calculated from PET imaging studies, n=10 (table)): 1.00 ± 0.81 (n=10); Blood level ([4]; 30 min after injection): 2.4 ± 0.86 %ID/g; Intestinal accumulation ([4]; 30 min after injection): 4.6 ± 1.42 %ID/g; Intestinal accumulation ([4]; 90 min after injection): 2.4 ± 0.85 %ID/g
